{
  "source": "patent US8088806B2",
  "about": "(Achillion Pharmaceuticals, Inc., priority 2005, dated 2012)",
  "tested_on": "HCV replicon",
  "assay": "Replicon based assay of HCV replication inhibition (NPT ELISA)",
  "assay_type": "cell-based, Hepatitis C virus",
  "details": "Hepatitis C virus, replicon based assay of HCV replication inhibition; Table II; read-out: Activity",
  "how_it_was_run": "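Huh-7 cells carrying a bicistronic HCV replicon (neo, EMCV-IRES-driven NS3–NS5B) treated overnight after seeding with usually 6 concentrations, 10 to 0.03 micromolar, for three days at 37° C without G418. Replication read as NPT level by captured ELISA; matched-DMSO wells and interferon alpha as controls.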",
  "data": [
    {"molecule": "CCCCCOc1ccc(Nc2nc(-c3csc(N)n3)cs2)cc1C(F)(F)F", "note": "[compound 262, 4-(2-aminothiazol-4-yl)-N-(4-(pentyloxy)-3-(trifluoromethyl)phenyl)thia-zol-2-amine]", "values": [
      {"measurement": "EC50", "value": "< 1", "unit": "µM"}
    ]},
    {"molecule": "CCCCCOc1ccc(Nc2nc(-c3cn4cccnc4n3)cs2)cc1C(F)(F)F", "note": "[compound 263, 4-(imidazo[1,2-a]pyrimidin-2-yl)-N-(4-(pentyloxy)-3-(trifluoromethyl)phenyl)thia-zol-2-amine]", "values": [
      {"measurement": "EC50", "value": "< 1", "unit": "µM"}
    ]},
    {"molecule": "CCCCCOc1ccc(Nc2nc(-c3ccc(CO)nc3)cs2)cc1C(F)(F)F", "note": "[compound 264, (5-(2-(4-(pentyloxy)-3-(trifluoromethyl)phenyl-amino)thiazol-4-yl)pyridin-2-yl)methanol]", "values": [
      {"measurement": "EC50", "value": "< 1", "unit": "µM"}
    ]},
    {"molecule": "CCCCCOc1ccc(Nc2nc(CN3CCN(C(=O)OC(C)(C)C)CC3)cs2)cc1C(F)(F)F", "note": "[compound 265, tert-butyl 4-((2-(4-(pentyloxy)-3-(trifluoromethyl)phenyl-amino)thiazol-4-yl)methyl)piperazine-1-carboxylate]", "values": [
      {"measurement": "EC50", "value": "< 1", "unit": "µM"}
    ]},
    {"molecule": "CCCCCOc1ccc(Nc2nc(CN3CCC(N(C)C(=O)OC(C)(C)C)C3)cs2)cc1C(F)(F)F", "note": "(stereo not drawn) [compound 266, tert-butyl methyl(1-((2-(4-(pentyloxy)-3-(trifluoromethyl)phenyl-amino)thiazol-4-yl)methyl)pyrrolidin-3-yl)carbamate]", "values": [
      {"measurement": "EC50", "value": "< 1", "unit": "µM"}
    ]},
    {"molecule": "CCCCCOc1ccc(Nc2nc(CN3CCC(C(N)=O)CC3)cs2)cc1C(F)(F)F", "note": "[compound 267, 1-((2-(4-(pentyloxy)-3-(trifluoromethyl)phenyl-amino)thiazol-4-yl)methyl)piperidine-4-carboxamide]", "values": [
      {"measurement": "EC50", "value": "< 1", "unit": "µM"}
    ]},
    {"molecule": "CCCCCOc1ccc(Nc2nc(CN3CCC[C@H]3C(=O)O)cs2)cc1C(F)(F)F", "note": "[compound 268, (S)-1-((2-(4-(pentyloxy)-3-(trifluoromethyl)phenyl-amino)thiazol-4-yl)methyl)pyrrolidine-2-carboxylic acid]", "values": [
      {"measurement": "EC50", "value": "< 1", "unit": "µM"}
    ]},
    {"molecule": "CCCCCOc1ccc(Nc2nc(CN3CCC(O)CC3)cs2)cc1C(F)(F)F", "note": "[compound 272, 1-((2-(4-(pentyloxy)-3-(trifluoromethyl)phenyl-amino)thiazol-4-yl)methyl)piperidin-4-ol]", "values": [
      {"measurement": "EC50", "value": "< 1", "unit": "µM"}
    ]},
    {"molecule": "CCCCCOc1ccc(Nc2nc(CN3CCC(CO)CC3)cs2)cc1C(F)(F)F", "note": "[compound 273, (1-((2-(4-(pentyloxy)-3-(trifluoromethyl)phenyl-amino)thiazol-4-yl)methyl)piperidin-4-yl)methanol]", "values": [
      {"measurement": "EC50", "value": "< 1", "unit": "µM"}
    ]},
    {"molecule": "CCCCCOc1ccc(Nc2nc(CN3CCC(C(=O)O)CC3)cs2)cc1C(F)(F)F", "note": "[compound 274, 1-((2-(4-(pentyloxy)-3-(trifluoromethyl)phenyl-amino)thiazol-4-yl)methyl)piperidine-4-carboxylic acid]", "values": [
      {"measurement": "EC50", "value": "< 1", "unit": "µM"}
    ]},
    {"molecule": "CCCCCOc1ccc(Nc2nc(CN3CCCC(C(=O)O)C3)cs2)cc1C(F)(F)F", "note": "(stereo not drawn) [compound 275, 1-((2-(4-(pentyloxy)-3-(trifluoromethyl)phenyl-amino)thiazol-4-yl)methyl)piperidin-3-carboxylic acid]", "values": [
      {"measurement": "EC50", "value": "< 1", "unit": "µM"}
    ]},
    {"molecule": "CCCCCOc1ccc(Nc2nc(CN3CCCC(C)C3)cs2)cc1C(F)(F)F", "note": "(stereo not drawn) [compound 276, 4-((3-methylpiperidin-1-yl)methyl)-N-(4-(pentyloxy)-3-(trifluoromethyl)phenyl)thia-zol-2-amine]", "values": [
      {"measurement": "EC50", "value": "< 1", "unit": "µM"}
    ]},
    {"molecule": "CCCCCOc1ccc(Nc2nc(CN3C(C)CCCC3C)cs2)cc1C(F)(F)F", "note": "(stereo not drawn) [compound 277, 4-((2,6-dimethylpiperidin-1-yl)methyl)-N-(4-(pentyloxy)-3-(trifluoromthyl)phenyl)thia-zol-2-amine]", "values": [
      {"measurement": "EC50", "value": "< 1", "unit": "µM"}
    ]},
    {"molecule": "CCCCCOc1ccc(Nc2nc(CN3CCC[C@@H]3C(=O)O)cs2)cc1C(F)(F)F", "note": "[compound 278, (R)-1-((2-(4-(pentyloxy)-3-(trifluoromethyl)phenyl-amino)thiazol-4-yl)methyl)pyrrolidine-2-carboxylic acid]", "values": [
      {"measurement": "EC50", "value": "< 1", "unit": "µM"}
    ]},
    {"molecule": "CCCCCOc1ccc(Nc2nc(CN3CCN(C(=O)OC(C)(C)C)CC3)cs2)cc1F", "note": "[compound 279, tert-butyl 4-((2-(3-fluoro-4-(pentyloxy)phenylamino)thia-zol-4-yl)methyl)piperiazine-1-carboxylate]", "values": [
      {"measurement": "EC50", "value": "1 to 10", "unit": "µM"}
    ]},
    {"molecule": "CCCCCOc1ccc(Nc2nc(CN3CCC(N(C)C(=O)OC(C)(C)C)C3)cs2)cc1F", "note": "(stereo not drawn) [compound 280, tert-butyl 1-((2-(3-fluoro-4-(pentyloxy)phenylamino)thia-zol-4-yl)m,ethyl)pyrrolidin-3-yl(methyl)carbamate]", "values": [
      {"measurement": "EC50", "value": "1 to 10", "unit": "µM"}
    ]},
    {"molecule": "CCCCCOc1ccc(Nc2nc(CN3CCN(Cc4ccccn4)CC3)cs2)cc1F", "note": "[compound 281, N-(3-fluoro-4-(pentyloxy)phenyl)-4-((4-(pyridin-2-ylmethyl)piperiazin-1-yl)methyl)thiazol-2-amine]", "values": [
      {"measurement": "EC50", "value": "< 1", "unit": "µM"}
    ]},
    {"molecule": "CCCCCOc1ccc(Nc2nc(CN3CCN(C4CCCCCC4)CC3)cs2)cc1F", "note": "[compound 282, 4-((4-cycloheptylpiperazin-1-yl)methyl)-N-(3-fluoro-4-(pentyloxy)phenyl)thiazol-2-amine]", "values": [
      {"measurement": "EC50", "value": "< 1", "unit": "µM"}
    ]},
    {"molecule": "CCCCCOc1ccc(Nc2nc(CN3CCN(CCN(C)C)CC3)cs2)cc1F", "note": "[compound 283, 4-((4-(2-(dimeethylamino)ethyl)piper-azin-1-yl)methyl)-N-(3-fluoro-4-(pentyloxy)phenyl)thiazol-2-amine]", "values": [
      {"measurement": "EC50", "value": "1 to 10", "unit": "µM"}
    ]},
    {"molecule": "CCCCCOc1ccc(Nc2nc(CN3CCCC(C(=O)N(CC)CC)C3)cs2)cc1F", "note": "(stereo not drawn) [compound 284, N,N-diethyl-1-((2-(3-fluoro-4-(pentyloxy)phenylamino)thia-zol-4-yl)methyl)piperidine-3-carboxamide]", "values": [
      {"measurement": "EC50", "value": "1 to 10", "unit": "µM"}
    ]},
    {"molecule": "CCCCCOc1ccc(Nc2nc(CN3CCOCC3)cs2)cc1F", "note": "[compound 285, N-(3-fluoro-4-(pentyloxy)phenyl)-4-(morpholinomethyl)thiazol-2-amine]", "values": [
      {"measurement": "EC50", "value": "1 to 10", "unit": "µM"}
    ]},
    {"molecule": "CCCCCOc1ccc(Nc2nc(CN3CCCCC3CO)cs2)cc1F", "note": "(stereo not drawn) [compound 286, (1-((2-(3-fluoro-4-(pentyloxy)phenylamino)thia-zol-4-yl)methyl)piperidin-2-yl)methanol]", "values": [
      {"measurement": "EC50", "value": "1 to 10", "unit": "µM"}
    ]},
    {"molecule": "CCCCCOc1ccc(Nc2nc(CN3CCC(N(C)C)C3)cs2)cc1F", "note": "(stereo not drawn) [compound 287, 4-((3-(dimethylamino)pyrrolidin-1-yl)methyl)-N-(3-fluoro-4-(pentyloxy)pheenyl)thiazol-2-amine]", "values": [
      {"measurement": "EC50", "value": "< 1", "unit": "µM"}
    ]},
    {"molecule": "CCCCCOc1ccc(Nc2nc(CN3CCC(O)C3)cs2)cc1F", "note": "(stereo not drawn) [compound 288, 1-((2-(3-fluoro-4-(pentyloxy)phenylamino)thia-zzol-4-yl)methyl)pyrrolidin-3-ol]", "values": [
      {"measurement": "EC50", "value": "< 1", "unit": "µM"}
    ]},
    {"molecule": "CCCCCOc1ccc(Nc2nc(CN3CCC(C(=O)OCC)CC3)cs2)cc1F", "note": "[compound 289, ethyl 1-((2-(3-fluoro-4-(pentyloxy)phenylamino)thia-zol-4-yl)methyl)piperidine-4-carboxylate]", "values": [
      {"measurement": "EC50", "value": "1 to 10", "unit": "µM"}
    ]},
    {"molecule": "CCCCCOc1ccc(Nc2nc(CN3C[C@H](O)CC3C(=O)OC)cs2)cc1F", "note": "(stereo partly drawn) [compound 290, (4R)-methyl 1-((2-(3-fluoro-4-(pentyloxy)phenylamino)thia-zol-4-yl)methyl)-4-hydroxypyrrolidine-2-carboxylate]", "values": [
      {"measurement": "EC50", "value": "< 1", "unit": "µM"}
    ]},
    {"molecule": "CCCCCOc1ccc(Nc2nc(CN3CCC(O)CC3)cs2)cc1F", "note": "[compound 291, 1-((2-(3-fluoro-4-(pentyloxy)phenylamino)thia-zol-4-yl)methyl)piperidin-4-ol]", "values": [
      {"measurement": "EC50", "value": "1 to 10", "unit": "µM"}
    ]},
    {"molecule": "CCCCCOc1ccc(Nc2nc(CN3CCC(CO)CC3)cs2)cc1F", "note": "[compound 292, (1-((2-(3-fluoro-4-(pentyloxy)phenylamino)thia-zol-4-yl)methyl)piperidin-4-yl)methanol]", "values": [
      {"measurement": "EC50", "value": "1 to 10", "unit": "µM"}
    ]},
    {"molecule": "CCCCCOc1ccc(Nc2nc(CN3CCCC(C(=O)O)C3)cs2)cc1F", "note": "(stereo not drawn) [compound 293, 1-((2-(3-fluoro-4-(pentyloxy)phenylamino)thia-zol-4-yl)methyl)piperidine-3-carboxylic acid]", "values": [
      {"measurement": "EC50", "value": "1 to 10", "unit": "µM"}
    ]},
    {"molecule": "CCCCCOc1ccc(Nc2nc(CN3CCC[C@@H]3C(=O)O)cs2)cc1F", "note": "[compound 294, (R)-1-((2-(3-fluoro-4-(pentyloxy)phenylamino)thia-zol-4-yl)methyl)pyrrolidine-2-carboxylic acid]", "values": [
      {"measurement": "EC50", "value": "1 to 10", "unit": "µM"}
    ]},
    {"molecule": "CCCCCOc1ccc(Nc2nc(CN3CCC(C)CC3)cs2)cc1F", "note": "[compound 295, N-(3-fluoro-4-(pentyloxy)pheenyl)-4-((4-methylpiperidin-1-yl)methyl)thiazol-2-amine]", "values": [
      {"measurement": "EC50", "value": "1 to 10", "unit": "µM"}
    ]},
    {"molecule": "CCCCCOc1ccc(Nc2nc(CN3CCCC(C)C3)cs2)cc1F", "note": "(stereo not drawn) [compound 296, N-(3-fluoro-4-(pentyloxy)phenyl)-4-((3-methylpiperidin-1-yl)methyl)thiazol-2-amine]", "values": [
      {"measurement": "EC50", "value": "1 to 10", "unit": "µM"}
    ]},
    {"molecule": "CCCCCOc1ccc(Nc2nc(CN3C(C)CCCC3C)cs2)cc1F", "note": "(stereo not drawn) [compound 297, 4-((2,6-dimethylpiperidin-1-yl)methyl)-N-(3-fluoro-4-(pentyloxy)phenyl)thiazol-2-amine]", "values": [
      {"measurement": "EC50", "value": "1 to 10", "unit": "µM"}
    ]},
    {"molecule": "CCCCCOc1ccc(Nc2nc(-c3csc(-c4cccnc4)n3)cs2)cc1C(F)(F)F", "note": "[compound 298, N-(4-(pentyloxy)-3-(trifluoromethyl)phenyl)-4-(2-(pyridin-3-yl)thiazol-4-yl)thiazol-2-amine]", "values": [
      {"measurement": "EC50", "value": "< 1", "unit": "µM"}
    ]},
    {"molecule": "COc1ccc(C2CCCCC2)cc1Nc1nc(-c2cccnc2)cs1", "note": "[compound 299, N-(5-cyclohexyl-2-methoxyphenyl)-4-(pyridin-3-yl)thiazol-2-amine]", "values": [
      {"measurement": "EC50", "value": "1 to 10", "unit": "µM"}
    ]},
    {"molecule": "COc1ccc(Oc2ccccc2)cc1Nc1nc(-c2cccnc2)cs1", "note": "[compound 300, N-(2-methoxy-5-phenoxyphenyl)-4-(pyridin-3-yl)thiazol-2-amine]", "values": [
      {"measurement": "EC50", "value": "1 to 10", "unit": "µM"}
    ]},
    {"molecule": "CCCCCOc1ccc(Nc2nc(-c3ccc(C(=O)NC4CC4)nc3)cs2)cc1C(F)(F)F", "note": "[compound 301, N-cyclopropyl-5-(2-(4-(pentyloxy)-3-(trifluoromethyl)phenylamino)thiazolo-4-yl)picolinamide]", "values": [
      {"measurement": "EC50", "value": "< 1", "unit": "µM"}
    ]},
    {"molecule": "CCCCCCCCOc1ccc(Nc2nc(-c3ccc(C(=O)O)cc3)cs2)cc1", "note": "[compound 303, 4-(2-(4-(octyloxy)phenylamino)thia-zol-4-yl)benzoic acid]", "values": [
      {"measurement": "EC50", "value": "1 to 10", "unit": "µM"}
    ]},
    {"molecule": "CCCCCOc1ccc(Nc2nc(CN3CCC(C(C)(C)N)C3)cs2)cc1C(F)(F)F", "note": "(stereo not drawn) [compound 304, 4-((3-(2-aminopropan-2-yl)pyrrolidin-1-yl)methyl)-N-(4-(pentyloxy)-3-(trifluoromethyl)phenyl)thia-zol-2-amine]", "values": [
      {"measurement": "EC50", "value": "1 to 10", "unit": "µM"}
    ]}
  ]
}
